According to PubChem BioAssay (NCI):
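How tested: cells in 96-well plates exposed to compound for 48 hours at five concentrations. TGI: concentration producing complete growth inhibition.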

What was measured:
Assay in all cases: inhibition of tumour cell growth, NCI panel, 48 h
[1] = tested on: T-47D breast
[2] = tested on: A549 NSCLC
[3] = tested on: M14 melanoma
[4] = tested on: BT-549 breast
[5] = tested on: NCI/ADR-RES ovarian
[6] = tested on: K-562 leukemia
[7] = tested on: HCT-116 colon
[8] = tested on: NCI-H226 lung
[9] = tested on: MDA-MB-435
[10] = tested on: CAKI-1 renal

Structure (SMILES)	TGI [1] [µM]	TGI [2] [µM]	TGI [3] [µM]	TGI [4] [µM]	TGI [5] [µM]	TGI [6] [µM]	TGI [7] [µM]	TGI [8] [µM]	TGI [9] [µM]	TGI [10] [µM]
CC1CN=C(c2cccc(-c3nc(-c4cccc(C5=NCC(C)N5)c4)nc(N(C)C)n3)c2)N1 (stereo not given)	15.1	9.27	13	13.9	35.9	2.77	2.49	6.47	2.61	32.2
C=CCN(c1cc(OC)c2[nH]c(C(=O)OCC)c(C)c2c1[N+](=O)[O-])S(C)(=O)=O	48.6	> 100	> 100	60.5	72.6	31.4	58.3	25.3	64.7	> 100
Cc1cc(O)c(/C=N/C(=S)Nc2ccccc2)c(=O)o1	> 100	> 100	> 100	> 100	> 100	> 100	> 100	> 100	> 100	> 100
C=CCCCCOC1C=CC(O)C(CO)O1 (stereo not given)	> 100	> 100	> 100	> 100	> 100	> 100	> 100	> 100	> 100	> 100
CC1(C)CCCCCC(C)(CCCO)C1=O (stereo not given)	> 100	> 100	> 100	> 100	> 100	> 100	> 100	> 100	> 100	> 100
COc1cccc2cc(C(C)=O)c(=O)oc12	> 100	> 100	> 100	> 100	> 100	> 100	> 100	> 100	> 100	> 100
COC(=O)/C=C(\S/C=C(/c1ccccc1)N1CCn2c(C(=O)c3ccccc3)c(C(=O)OC)c(C(=O)OC)c21)C(=O)OC	5.91	> 10	5.83	> 10	> 10	> 10	5	> 10	> 10	> 10
O=C(NNS(=O)(=O)c1ccccc1)c1cccnc1	> 100	> 100	> 100	> 100	> 100	> 100	> 100	> 100	> 100	> 100
Cc1ccc(O)c(C2=CC(c3cccc(Br)c3)SC(N)=N2)c1 (stereo not given)	87.9	88.3	62.9	83.6	71.9	83.2	35.9	71.5	37.2	> 100
CCCN1C(=O)/C(=C\c2ccc(OC)c(OC)c2)SC1=Nc1ccccc1	> 100	> 100	> 100	> 100	> 100	> 100	> 100	> 100	> 100	> 100
CCOC(=O)CN1CC(C2=C(O)CN(CC(=O)OCC)C2=O)=CC1=O	> 100	> 100	> 100	> 100	> 100	> 100	> 100	> 100	> 100	> 100
COc1ccc2c3c1OC1C34CCN(C)C(C2)C4=CC(I)C1(OC)OC (stereo not given)	48.8	54.8	29.6	36.2	> 100	23.4	14.6	59.3	15.5	25.6
O=C(Nc1cccc2ccccc12)c1ccccc1	81.6	> 100	> 100	> 100	> 100	> 100	> 100	> 100	> 100	> 100
COP(=O)(OC)/C(=C/c1cn(C(c2ccccc2)(c2ccccc2)c2ccccc2)cn1)NC=O	> 100	> 100	34.4	30.6	> 100	> 100	32.8	98.9	40.1	62.3
Cc1cccc(C)c1Nc1nc(C)c(C(=O)CC(=O)C(=O)Nc2c(C(C)C)cccc2C(C)C)s1	> 100	> 100	> 100	> 100	> 100	> 100	> 100	> 100	> 100	> 100
N#CCN(CC#N)C1CC=CCC1N(CC#N)CC#N (stereo not given)	> 100	> 100	> 100	> 100	> 100	> 100	> 100	> 100	> 100	> 100
CCN(CC)c1ccc2cc(C(=O)Nc3ccc(C)cc3)c(=N)oc2c1	> 100	> 100	> 100	> 100	> 100	> 100	> 100	> 100	> 100	> 100
